Data: patent US12497642B2, “Incorporation of unnatural nucleotides and methods of use in vivo thereof” (THE SCRIPPS RESEARCH INSTITUTE, priority 2017, dated 2025)

Key:
[1] = system: semi-synthetic organism (SSO) (strain YZ3); test: Replication and UBP retention in vivo in the semi-synthetic organism (streptavidin biotin shift, PAGE), Example 1; format: cell-based, Escherichia coli; details: for UBP retention in vivo, in words: dTPT3TP analog paired with dNaMTP, discussion
Description: All bacteria were cultured in 100 μL of liquid 2×YT media (casein peptone 16 g/L, yeast extract 10 g/L, NaCl 5 g/L) supplemented with potassium phosphate (50 mM, pH 7) in 96-well microwell plates. When noted, antibiotics were used at the following concentrations: chloramphenicol, 5 μg/mL; ampicillin, 100 μg/mL. Cell growth, indicated as OD600, was measured using a Perkin Elmer EnVision 2103 Multilabel Reader with a 590/20 nm filter. Unless otherwise stated, molecular biology reagents were purchased from New England Biolabs (Ipswich, MA) and were used according to the manufacturer's protocols. As necessary, purification of nucleic acids was accomplished by micro-elution columns (Zymo Research Corp; Irvine, CA). All natural oligonucleotides were purchased from IDT (San Diego, CA), and oligonucleotides containing dNaM were synthesized by Biosearch Technologies (Petaluma, CA) with purification by reverse phase cartridge. Unnatural nucleotide triphosphates were prepared, and confirmed by MALDI-TOF and UV/Vis.
Plasmids containing the dNaM-dTPT3 UBP were prepared and used to transform the semi-synthetic organism (SSO). To create a template for in vivo replication assays, Golden Gate assembly was used to construct a derivative of the pUC19 plasmid in which a single dNaM-dTPT3 UBP was embedded within the TK1 sequence ([…]; […]), a context within which the UBP is well replicated in the SSO. Plasmids were then used to transform the SSO (strain YZ3). Following transformation, the SSO was allowed to recover at 37° C. for 1 h in media containing dNaMTP (125 μM) and dTPT3TP (25 μM). Cells were pelleted by centrifugation, resuspended in fresh media lacking unnatural triphosphates, split into 100-μL aliquots and then used to inoculate cultures containing different pairs of unnatural triphosphates at the specified concentrations. When the cell density reached an OD600 of ˜0.7, cells were pelleted and plasmids were recovered and PCR amplified with d5SICSTP and a biotinylated analog of dNaMTP, and UBP retention was determined by comparing the intensity of the streptavidin shifted and unshifted bands via PAGE.

[2] = PCR amplification in vitro (SAR named in the discussion); format: biochemical; details: paired with any analog

In the case of `O=c1c2cccnc2ccn1C1CC(O)C(COP(=O)(O)OP(=O)(O)OP(=O)(O)O)O1` (stereo not shown) [dNICS], the UBP retention ([1]; context 1, dNaMTP 125 μM, dTPT3TP analog 125 μM) is reported as “significant UBP retention”, the “UBP retention in vivo, in words” value [1] is reported as “supports UBP retention reasonably well” and the “UBP retention in vivo, in words” value ([1]; listed as dNICSTP) is reported as “reasonable retention in vivo”. For the same compound, the PCR amplification [2] was “do not support PCR amplification”.
